Here are results for 23 compounds from patent publication US12486278B2, “MASP-2 inhibitors and methods of use” (Omeros Corporation, priority 2019, dated 2025).

Counter-ions that a name gives are not always drawn.

The target in the assay is T1, MASP-2 (CCP1-CCP2-SP) (Homo sapiens, UniProt O00187).
T1 construct: 15 μL of Enzyme MASP-2 (CCP1-CCP2-SP) in Assay Buffer
T1 sequence (O00187 445-686 limits assumed): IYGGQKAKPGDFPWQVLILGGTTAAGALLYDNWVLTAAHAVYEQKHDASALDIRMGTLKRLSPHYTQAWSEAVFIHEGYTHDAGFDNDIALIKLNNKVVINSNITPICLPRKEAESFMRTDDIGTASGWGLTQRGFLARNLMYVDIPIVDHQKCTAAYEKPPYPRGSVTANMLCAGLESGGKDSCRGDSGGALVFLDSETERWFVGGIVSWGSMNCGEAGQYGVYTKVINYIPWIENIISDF
T1 sequence (O00187 298-444 partner limits assumed): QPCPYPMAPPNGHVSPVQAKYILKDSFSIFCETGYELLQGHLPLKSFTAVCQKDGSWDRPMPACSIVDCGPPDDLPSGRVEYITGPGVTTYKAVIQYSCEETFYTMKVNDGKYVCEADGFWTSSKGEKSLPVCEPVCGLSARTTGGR
Nature of the assay: Enzymatic Assay for MASP-2 (fluorogenic substrate). Conditions: fluorogenic substrate based on C2 cleavage site; room temperature, 20 min; 20 mM HEPES pH 7.4, 140 mM NaCl, 0.1% Tween 20. The class given is biochemical. As for the experimental part: The MASP-2 assay utilizes a fluorogenic substrate, based on the cleavage site for its natural substrate C2. The assay is run at room temperature in an assay buffer containing 20 mM HEPES, pH 7.4, 140 mM NaCl and 0.1% Tween 20. Assay parameters are adjusted such that the assay is linear with respect to time, enzyme, and substrate concentrations. Under these optimized assays conditions, IC50 values are equivalent to Ki values, except in a few cases of “tight binding” inhibitors. Cases of “tight binding” or possible “slow binding” inhibitors are handled by the methods described in Copeland R. A. (2013) Evaluation of Enzyme Inhibitors in Drug Discovery. 2nd Ed., John Wiley and Sons, Inc., Chapters 5-7.
The MASP-2 assay protocol is carried out as follows. Test compounds are serially diluted in DMSO and then 100 nL of each dilution is transferred to the assay plate(s). 10 μL of Assay Buffer is added, followed by 15 μL of Enzyme MASP-2 (CCP1-CCP2-SP) in Assay Buffer. 15 μL of Substrate in Assay Buffer is then added and mixed to start the reactions. After 20 min at room temperature, 15 μL of a stop solution (0.1 M acetic acid) is added, mixed and the plates are read on a SpectraMax i3x Microplate Reader and exported as Excel files. Each assay plate included a “no inhibitor” (DMSO Only) control, a “no enzyme” control and a reference inhibitor control. % Activity values=100*(average test comp. fluorescence−average “no enzyme” fluorescence)/(average “DMSO only” fluorescence−average “no enzyme” fluorescence). IC50 and Ki values are very reproducible, falling well within ±2-fold.
As for `Cc1nc(N)ccc1CNC(=O)[C@H](C)NC(=O)[C@H]1C[C@H](Cc2ccc3c(C)cccc3c2)CN1` [Compound I-85, (2R,4S)—N—((S)-1-(((6-Amino-2-Methylpyridin-3-Yl)Methyl)Amino)-1-Oxopropan-2-Yl)-4-((5-Methylnaphthalen-2-Yl)Methyl)Pyrrolidine-2-Carboxamide Dihydrochloride], the Ki – broadly, the dissociation constant of the complex between target and ligand, obtained from inhibition or displacement – is less than 500 nM.
With `C[C@H](NC(=O)[C@H]1C[C@H](c2cccc(CO)c2)CN1)C(=O)NCc1ccc(C(=N)N)cc1` [Compound I-94, (2R,4R)—N—((S)-1-((4-Carbamimidoylbenzyl)Amino)-1-Oxopropan-2-Yl)-4-(3-(Hydroxymethyl)Phenyl)Pyrrolidine-2-Carboxamide Di-Trifluoroacetate] the figure was less than 500 nM; with `C[C@H](NC(=O)[C@H]1C[C@H](Cc2cc(Br)c(Cl)s2)CN1)C(=O)NCc1cnc2c(c1)c(Cl)cn2C` [Compound I-19, (2R,4R)-4-((4-Bromo-5-Chlorothiophen-2-Yl)Methyl)-N—((S)-1-(((3-Chloro-1-Methyl-1H-Pyrrolo[2,3-B]Pyridin-5-Yl)Methyl)Amino)-1-Oxopropan-2-Yl)Pyrrolidine-2-Carboxamide Trifluoroacetate], less than 500 nM; with `Cc1nc(N)ccc1CNC(=O)[C@H](CO)NC(=O)[C@H]1C[C@H](Cc2ccccc2)CN1` [Compound I-57, (2R,4S)—N—((S)-1-(((6-Amino-2-Methylpyridin-3-Yl)Methyl)Amino)-3-Hydroxy-1-Oxopropan-2-Yl)-4-Benzylpyrrolidine-2-Carboxamide Dihydrochloride], less than 500 nM.
With `N=C(N)c1ccc(CNC(=O)[C@@H]2CCN2C(=O)[C@H]2C[C@@H](c3ccccc3)CCN2)cc1` [Compound I-66, (S)—N-(4-Carbamimidoylbenzyl)-1-((2R,4S)-4-Phenylpiperidine-2-Carbonyl)Azetidine-2-Carboxamide Trifluoroacetate] the figure was less than 500 nM; with `C[C@H](NC(=O)[C@H]1C[C@@H](c2ccc(N3CCOCC3)cc2)CCN1)C(=O)NCc1ccc(C(=N)N)cc1` [Compound I-76, (2R,4S)—N—((S)-1-((4-Carbamimidoylbenzyl)Amino)-1-Oxopropan-2-Yl)-4-(4-Morpholinophenyl)Piperidine-2-Carboxamide Dihydrochloride], less than 500 nM.
With `CC(NC(=O)[C@H]1C[C@@H](c2ccccc2)CCN1CC(=O)O)C(=O)NCc1cc2cnccc2[nH]1` (stereo in doubt) [Compound I-104, 2-((2R,4S)-2-(((R)-1-(((1H-pyrrolo[3,2-c]pyridin-2-yl)methyl)amino)-1-oxopropan-2-yl)carbamoyl)-4-phenylpiperidin-1-yl)acetic acid di-trifluoroacetate] the figure was less than 500 nM; with `C[C@H](NC(=O)[C@H]1C[C@@H](c2cc3ccccc3s2)CCN1)C(=O)NCc1ccc(C(=N)N)cc1` [Compound I-71, (2R,4S)-4-(Benzo[B]Thiophen-2-Yl)-N—((S)-1-((4-Carbamimidoylbenzyl)Amino)-1-Oxopropan-2-Yl)Piperidine-2-Carboxamide Di-Trifluoroacetate], less than 500 nM; with `C[C@H](NC(=O)[C@H]1C[C@H](Oc2ccccc2)CN1)C(=O)NCc1cc2cnccc2[nH]1` [Compound I-97, (2R,4S)—N—((S)-1-(((1H-Pyrrolo[3,2-c]pyridin-2-yl)methyl)amino)-1-oxopropan-2-yl)-4-phenoxypyrrolidine-2-carboxamide di-trifluoroacetate], less than 500 nM.
In turn, `C[C@H](NC(=O)[C@H]1C[C@H](Cc2ccc(F)c(Cl)c2)CN1)C(=O)NCc1cc2cnccc2[nH]1` [Compound I-2, (2R,4S)—N—((S)-1-(((1H-Pyrrolo[3,2-C]Pyridin-2-Yl)Methyl)Amino)-1-Oxopropan-2-Yl)-4-(3-Chloro-4-Fluorobenzyl)Pyrrolidine-2-Carboxamide Di-Trifluoroacetate] showed a Ki of less than 500 nM.
For `Cc1nc(N)ccc1CNC(=O)[C@H](C)NC(=O)[C@H]1C[C@@H](c2ccccc2)CCN1CCNS(C)(=O)=O` [Compound I-41, (2R,4S)—N—((S)-1-(((6-Amino-2-Methylpyridin-3-Yl)Methyl)Amino)-1-Oxopropan-2-Yl)-1-(2-(Methylsulfonamido)Ethyl)-4-Phenylpiperidine-2-Carboxamide Di-Trifluoroacetate], the inhibitory constant (Ki) lay in the range of 2500 to 10000 nM.
Compound `C[C@H](NC(=O)[C@H]1C[C@@H](c2ccccc2)CCN1CCP(=O)(O)O)C(=O)NCc1cc2cnccc2[nH]1` [Compound I-39, (2-((2R,4S)-2-(((S)-1-(((1H-Pyrrolo[3,2-C]Pyridin-2-Yl)Methyl)Amino)-1-Oxopropan-2-Yl)Carbamoyl)-4-Phenylpiperidin-1-Yl)Ethyl)Phosphonic Acid Di-Trifluoroacetate] had a Ki of less than 500 nM.
`C[C@H](NC(=O)[C@H]1C[C@H](Cc2ccc(F)c(Cl)c2)CN1CCC(=O)O)C(=O)NCc1ccc(C(=N)N)cc1` [Compound I-36, 3-((2R,4S)-2-(((S)-1-((4-Carbamimidoylbenzyl)Amino)-1-Oxopropan-2-Yl)Carbamoyl)-4-(3-Chloro-4-Fluorobenzyl)Pyrrolidin-1-Yl)Propanoic Acid Di-Trifluoroacetate] displayed a Ki of less than 500 nM.
With `C[C@H](NC(=O)[C@H]1C[C@H](Cc2cccc(Cl)c2)CN1)C(=O)NCc1cc2cnccc2[nH]1` [Compound I-5, (2R,4S)—N—((S)-1-(((1H-Pyrrolo[3,2-c]pyridin-2-yl)methyl)amino)-1-oxopropan-2-yl)-4-(3-chlorobenzyl)pyrrolidine-2-carboxamide di-trifluoroacetate], the inhibition constant (Ki) was less than 500 nM.
Compound `C[C@H](NC(=O)[C@H]1C[C@@H](c2ccncc2)CN1)C(=O)NCc1ccc(C(=N)N)cc1` [Compound I-95, (2R,4S)—N—((S)-1-((4-carbamimidoylbenzyl)amino)-1-oxopropan-2-yl)-4-(pyridin-4-yl)pyrrolidine-2-carboxamide di-trifluoroacetate] came in with a Ki of 500 to 2500 nM.
As to `C[C@H](NC(=O)[C@H]1C[C@H](Cc2ccccc2)CN1)C(=O)NCc1cc2c(s1)CNC2` [Compound I-99, (2R,4S)-4-Benzyl-N—((S)-1-(((5,6-Dihydro-4H-Thieno[2,3-C]Pyrrol-2-Yl)Methyl)Amino)-1-Oxopropan-2-Yl)Pyrrolidine-2-Carboxamide Di-Trifluoroacetate Salt], the Ki was less than 500 nM.
In turn, `C[C@H](NC(=O)[C@H]1C[C@@H](c2ccc3ccccc3c2)CCN1)C(=O)NCc1ccc(C(=N)N)cc1` [Compound I-70, (2R,4S)—N—((S)-1-((4-Carbamimidoylbenzyl)Amino)-1-Oxopropan-2-Yl)-4-(Naphthalen-2-Yl)Piperidine-2-Carboxamide Di-Trifluoroacetate] returned an inhibition constant (Ki) of less than 500 nM.
`C[C@H](NC(=O)[C@H]1C[C@H](c2ccccc2)CN1)C(=O)NCc1ccc(C(=N)N)cc1Cl` [Compound I-24, (2R,4R)—N—((S)-1-((4-Carbamimidoyl-2-Chlorobenzyl)Amino)-1-Oxopropan-2-Yl)-4-Phenylpyrrolidine-2-Carboxamide Di-Trifluoroacetate]: the Ki was less than 500 nM.
Consider `C[C@H](NC(=O)[C@H]1C[C@@H](c2ccc(-c3ccccc3)cc2)CCN1)C(=O)NCc1ccc(C(=N)N)cc1` [Compound I-69, (2R,4S)-4-([1,1′-Biphenyl]-4-Yl)-N—((S)-1-((4-Carbamimidoylbenzyl)Amino)-1-Oxopropan-2-Yl)Piperidine-2-Carboxamide Di-Trifluoroacetate], for which the Ki is less than 500 nM.
`Cc1nc(N)ccc1CNC(=O)[C@H](C)NC(=O)[C@H]1C[C@H](Cc2ccc(F)c(Cl)c2)CN1CC(=O)O` [Compound I-33, 2-((2R,4S)-2-(((S)-1-(((6-Amino-2-Methylpyridin-3-Yl)Methyl)Amino)-1-Oxopropan-2-Yl)Carbamoyl)-4-(3-Chloro-4-Fluorobenzyl)Pyrrolidin-1-Yl)Acetic Acid Di-Trifluoroacetate] displayed a Ki of less than 500 nM.
For `C[C@H](NC(=O)[C@H]1C[C@@H](c2ccccc2)CCN1CCNS(C)(=O)=O)C(=O)NCc1ccc(C(=N)N)cc1` [Compound I-43, (2R,4S)—N—((S)-1-((4-Carbamimidoylbenzyl)Amino)-1-Oxopropan-2-Yl)-1-(2-(Methylsulfonamido)Ethyl)-4-Phenylpiperidine-2-Carboxamide Di-Trifluoroacetate], the Ki was less than 500 nM.
To `CCOC(=O)CCN1CC[C@H](c2ccccc2)C[C@@H]1C(=O)N[C@@H](C)C(=O)NCc1ccc(C(=N)N)cc1` [Compound I-31, Ethyl 3-((2R,4S)-2-(((S)-1-((4-Carbamimidoylbenzyl)Amino)-1-Oxopropan-2-Yl)Carbamoyl)-4-Phenylpiperidin-1-Yl)Propanoate] belongs less than 500 nM; to `C[C@H](NC(=O)[C@H]1C[C@H](Cc2cccc(C(=O)O)c2)CN1)C(=O)NCc1ccc(C(=N)N)cc1` [Compound I-55, 3-(((3S,5R)-5-(((S)-1-((4-Carbamimidoylbenzyl)Amino)-1-Oxopropan-2-Yl)Carbamoyl)Pyrrolidin-3-Yl)Methyl)Benzoic Acid Di-Trifluoroacetate], less than 500 nM.
